Laboratory results taken from patent US20120214760A1, “TREATMENT OF URINARY TRACT INFECTIONS WITH ANTIBACTERIAL AMINOGLYCOSIDE COMPOUNDS” (Achaogen, Inc., priority 2009, published 2012).
Values after ≈ are worked out from the molar mass of the structure shown.

Legend:
[1] = test system: E. coli ATCC 25922 (AECO001); assay: MIC, CLSI broth microdilution; format: cell-based; details: Escherichia coli, ATCC25922, read-out: MIC AECO001, Table 1; AECO001 is ATCC25922
Method: (§1) Minimum inhibitory concentrations (MIC) were determined by reference Clinical and Laboratory Standards Institute (CLSI) broth microdilution methods per M7-A7 [2006]. Quality control ranges utilizing E. coli ATCC 25922, P. aeruginosa ATCC 27853 and S. aureus ATCC 29213, and interpretive criteria for comparator agents were as published in CLSI M100-S17 [2007]. Briefly, serial two-fold dilutions of the test compounds were prepared at 2× concentration in Mueller Hinton Broth. The compound dilutions were mixed in 96-well assay plates in a 1:1 ratio with bacterial inoculum. The inoculum was prepared by suspension of a colony from an agar plate that was prepared the previous day. Bacteria were suspended in sterile saline and added to each assay plate to obtain a final concentration of 5×10^5 CFU/mL. The plates were incubated at 35° C. for 20 hours in ambient air.

[2] = test system: P. aeruginosa ATCC 27853 (APAE001); assay: MIC, CLSI broth microdilution; format: cell-based; details: Pseudomonas aeruginosa, ATCC27853, read-out: MIC APAE001, Table 1; APAE001 is ATCC27853
Method: as §1

Compound | MIC [1] [µg/mL] | MIC [2] [µg/mL]
CN[C@@H]1[C@@H](O)[C@@H](O[C@@H]2[C@@H](O)[C@H](O[C@H]3OC(CNCC(O)CCN)=CC[C@H]3N)[C@@H](N)C[C@H]2NC(=O)[C@@H](O)CN)OC[C@]1(C)O (stereo partly drawn) [Example 68, 6′-(2-Hydroxy-4-amino-butyl)-1-(3-amino-2(S)-hydroxy-propionyl)-sisomicin] | 1 to 16 (≈ 1.61 to 25.7 µM) | 1 to 16 (≈ 1.61 to 25.7 µM)
CN[C@@H]1[C@@H](O)[C@@H](O[C@@H]2[C@@H](O)[C@H](O[C@H]3OC(CNC[C@H]4C[C@@H](N)[C@@H](O)C4)=CC[C@H]3N)[C@@H](N)C[C@H]2NC(=O)[C@@H](O)CN)OC[C@]1(C)O [Example 69, 6′-(Methyl-1(R)-amino-2(S)-hydroxy-cyclopent-4(S)-yl)-1-(3-amino-2(S)-hydroxy-propionyl)-sisomicin] | < 1 | 1 to 16 (≈ 1.54 to 24.7 µM)
CN[C@@H]1[C@@H](O)[C@@H](O[C@@H]2[C@@H](O)[C@H](O[C@H]3OC(CNCCC4(O)CNC4)=CC[C@H]3N)[C@@H](N)C[C@H]2NC(=O)[C@@H](O)CN)OC[C@]1(C)O [Example 70, 6′-(Ethyl-2-(3-hydroxy-azetidin-3-yl))-1-(3-amino-2(S)-hydroxy-propionyl)-sisomicin] | 1 to 16 (≈ 1.58 to 25.2 µM) | > 16
CN[C@@H]1[C@@H](O)[C@@H](O[C@@H]2[C@@H](O)[C@H](O[C@H]3OC(CNCC4CC4)=CC[C@H]3N)[C@@H](N)C[C@H]2NC(=O)C(O)C2CNC2)OC[C@]1(C)O (some centres unmarked) [Example 71, 6′-Methylcyclopropyl-1-(2-(azetidin-3-yl)-2-hydroxy-acetyl)-sisomicin] | 1 to 16 (≈ 1.63 to 26 µM) | > 16
CN[C@@H]1[C@@H](O)[C@@H](O[C@@H]2[C@@H](O)[C@H](O[C@H]3OC(CNC[C@H]4C[C@H](N)C4)=CC[C@H]3N)[C@@H](N)C[C@H]2NC(=O)C(O)C2CNC2)OC[C@]1(C)O (stereo partly drawn) [Example 72, 6′-(Methyl-trans-3-amino-cyclobutyl)-1-(2-(azetidin-3-yl)-2-hydroxy-acetyl)-sisomicin] | 1 to 16 (≈ 1.55 to 24.9 µM) | 1 to 16 (≈ 1.55 to 24.9 µM)
CN[C@@H]1[C@@H](O)[C@@H](O[C@@H]2[C@@H](O)[C@H](O[C@H]3OC(CNCC4CNC4)=CC[C@H]3N)[C@@H](N)C[C@H]2NC(=O)[C@@H](O)CN)OC[C@]1(C)O [Example 73, 6′-(Methyl-azetidin-3-yl)-1-(3-amino-2(S)-hydroxy-propionyl)-sisomicin] | 1 to 16 (≈ 1.66 to 26.5 µM) | 1 to 16 (≈ 1.66 to 26.5 µM)
CN[C@@H]1[C@@H](O)[C@@H](O[C@@H]2[C@@H](O)[C@H](O[C@H]3OC(CNCC4(CN)CC4)=CC[C@H]3N)[C@@H](N)C[C@H]2NC(=O)C(O)C2CNC2)OC[C@]1(C)O (some centres unmarked) [Example 74, 6′-(Methyl-1-aminomethyl-cyclopropyl)-1-(2-(azetidin-3-yl)-2-hydroxy-acetyl)-sisomicin] | 1 to 16 (≈ 1.55 to 24.9 µM) | > 16
CN[C@@H]1[C@@H](O)[C@@H](O[C@@H]2[C@@H](O)[C@H](O[C@H]3OC(CNCCO)=CC[C@H]3N)[C@@H](N)C[C@H]2NC(=O)C(O)C2CNC2)OC[C@]1(C)O (some centres unmarked) [Example 75, 6′-(2-Hydroxy-ethyl)-1-(2-(azetidin-3-yl)-2-hydroxy-acetyl)-sisomicin] | 1 to 16 (≈ 1.65 to 26.5 µM) | > 16
CN[C@@H]1[C@@H](O)[C@@H](O[C@@H]2[C@@H](O)[C@H](O[C@H]3OC(CNCCCN)=CC[C@H]3N)[C@@H](N)C[C@H]2NC(=O)C(O)C2CNC2)OC[C@]1(C)O (some centres unmarked) [Example 76, 6′-(3-Amino-propyl)-1-(2-(azetidin-3-yl)-2-hydroxy-acetyl)-sisomicin] | 1 to 16 (≈ 1.62 to 25.9 µM) | 1 to 16 (≈ 1.62 to 25.9 µM)
CN[C@@H]1[C@@H](O)[C@@H](O[C@@H]2[C@@H](O)[C@H](O[C@H]3OC(CNCC(O)CCN)=CC[C@H]3N)[C@@H](N)C[C@H]2NC(=O)C(O)C2CNC2)OC[C@]1(C)O (some centres unmarked) [Example 77, 6′-(2-Hydroxy-4-amino-butyl)-1-(2-(azetidin-3-yl)-2-hydroxy-acetyl)-sisomicin] | 1 to 16 (≈ 1.54 to 24.7 µM) | 1 to 16 (≈ 1.54 to 24.7 µM)
